Measurements taken from US7511041B2, “Fused azole-pyrimidine derivatives” (Bayer Pharmaceuticals Corporation, priority 2002, dated 2009).
Where a name gives a salt, the structure may show the parent alone.

Row | Structure (SMILES) | melting point
1 | CC(=O)Nc1ccc(/C(O)=C/C2=Nc3c(C)cccc3C3=NCCN23)cn1.Cl [Example 1-78] | > 285 °C
2 | COc1cc(C(=O)NC2=Nc3ccccc3C3=NCCN23)cc(OC)c1C.Cl [Example 2-242] | 321 °C (dec.)
3 | COc1c(OCC(=O)N2CCOCC2)ccc2c1N=C(/C=C(\O)c1cccnc1)N1CCN=C21.Cl [Example 1-30] | 240 to 241 °C
4 | COc1cc2c(c(OC)c1C)N=C(NC(=O)c1cccnc1C)N1CCN=C21.Cl [Example 2-78] | 230 °C (dec.)
5 | Cl.O/C(=C\C1=Nc2cc(N3CCOCC3)ccc2C2=NCCN12)c1cncc(O)c1 [Example 1-99] | 312 °C (dec.)
6 | Cc1cc(C(=O)NC2=Nc3ccccc3C3=NCCN23)cc(C)c1[N+](=O)[O-].Cl [Example 2-223] | 313 °C (dec.)
7 | Cl.O/C(=C\C1=Nc2cc(N3CCOCC3)ccc2C2=NCCN12)c1cccnc1 [Example 1-95] | > 300 °C
8 | O=C(Nc1nc2ccccc2c2nccn12)c1cccnc1 (as salt: hydrochloride) [Example 4-2, N-Imidazo[1,2-c]quinazolin-5-ylnicotinamide hydrochloride] | 228 °C (dec.)
9 | O=C(NC1=Nc2ccccc2C2=NCCN12)c1cccc([N+](=O)[O-])c1.O=C(O)C(F)(F)F [Example 2-253] | 238 to 239 °C
10 | Cl.O/C(=C\C1=Nc2ccccc2C2=NCCN12)c1cnccn1 [Example 1-142] | 217 to 222 °C
11 | COc1ccc2c(c1Br)N=C(NC(=O)c1cccnc1)N1CCN=C21.Cl [Example 2-66] | 298 °C
12 | CC(=O)Nc1ccc(/C(O)=C/C2=Nc3c(CN4CCOCC4)cccc3C3=NCCN23)cn1.Cl [Example 1-209] | > 260 °C
13 | COc1cc2c(cc1OC)C1=NCCN1C(/C=C(\O)c1cccnc1)=N2 (as salt: hydrochloride) [Example 1-2, (Z)-2-(8,9-Dimethoxy-2,3-dihydroimidazo[1,2-c]quinazolin-5-yl)-1-(3-pyridinyl)-ethenol hydrochloride] | > 300 °C
14 | Cc1nc2ncccc2cc1C(=O)NC1=Nc2ccccc2C2=NCCN12.Cl [Example 2-175] | 270 °C (dec.)
15 | Cl.O/C(=C\C1=Nc2ccccc2C2=NCCN12)c1ccncc1 [Example 1-176] | 235 °C (dec.)
16 | Cc1ccc(C(=O)NC2=Nc3cc(N4CCOCC4)ccc3C3=NCCN23)cn1.Cl [Example 2-14] | 267 °C (dec.)
17 | Cl.O=C(NC1=Nc2cc(OCC(=O)N3CCOCC3)ccc2C2=NCCN12)c1cccnc1 [Example 2-208] | 227 °C
18 | COc1c(C)ccc2c1N=C(/C=C(\O)c1ccc3[nH]cnc3c1)N1CCN=C21.Cl [Example 1-35] | 270 °C
19 | Cc1ccc2c(c1)N=C(/C=C(\O)c1cccnc1)N1CCN=C21.Cl [Example 1-120] | > 330 °C
20 | Cl.Nc1ccc(C(=O)NC2=Nc3ccccc3C3=NCCN23)cn1 [Example 2-150] | 290 °C (dec.)
21 | Cl.O=C(NC1=Nc2ccccc2C2=NCCN12)c1csc(-c2cccnc2)n1 [Example 2-320] | 310 °C (dec.)
22 | Cl.O=C(NC1=Nc2cc(Cl)ccc2C2=NCCN12)c1ccc2[nH]cnc2c1 [Example 2-40] | 270 °C
23 | CN(C=O)c1ccc(C(=O)NC2=Nc3ccccc3C3=NCCN23)cc1.Cl [Example 2-264] | 304 °C (dec.)
24 | O/C(=C\C1=Nc2cc(N3CCN(Cc4ccccc4)CC3)ccc2C2=NCCN12)c1cccnc1 [Example 1-103] | 257 °C
25 | Cc1ccc2c(c1OCCN1CCOCC1)N=C(/C=C(\O)c1cccnc1)N1CCN=C21.Cl [Example 1-40] | 256 °C (dec.)

Row | Structure (SMILES) | melting point
26 | Cl.O/C(=C\C1=Nc2ccccc2C2=NCCN12)c1ccno1 [Example 1-153] | 245 °C (dec.)
27 | Cl.O/C(=C\C1=Nc2ccccc2C2=NCCN12)c1ccco1 [Example 1-144] | > 300 °C
28 | Cc1cnc(C(=O)NC2=Nc3ccccc3C3=NCCN23)cn1.O=C(O)C(F)(F)F [Example 2-295] | 231 °C (dec.)
29 | O=C(NC1=Nc2ccccc2C2=NCCN12)c1ccc([N+](=O)[O-])cc1.O=C(O)C(F)(F)F [Example 2-255] | 265 °C (dec.)
30 | COc1cc2c(cc1OC)C1=NCCN1C(NC(=O)c1ccc3[nH]cnc3c1)=N2.Cl [Example 2-61] | 276 °C
31 | COc1c(OCC(N)=O)ccc2c1N=C(/C=C(\O)c1cccnc1)N1CCN=C21.Cl [Example 1-24] | 235 °C (dec.)
32 | O=C(NC1=Nc2ccccc2C2=NCCN12)c1ccc(Cl)cc1.O=C(O)C(F)(F)F [Example 2-230] | 243 to 245 °C
33 | CCn1nc(C)cc1C(=O)NC1=Nc2ccccc2C2=NCCN12.Cl [Example 2-192] | 271 to 272 °C
34 | Cl.O=C(NC1=Nc2ccccc2C2=NCCN12)c1cncc(O)c1 [Example 2-139] | 296 to 297 °C
35 | O/C(=C\C1=Nc2ccc(Cl)cc2C2=NCCN12)c1cccnc1 [Example 1-130] | > 330 °C
36 | Cl.O=C(NC1=Nc2ccc(Br)cc2C2=NCCN12)c1cccnc1 [Example 2-88] | 316 °C
37 | Cl.O=C(NC1=Nc2ccccc2C2=NCCN12)c1csc(-c2ccncc2)n1 [Example 2-322] | 335 °C (dec.)
38 | Cc1ncccc1C(=O)NC1=Nc2ccccc2C2=NCCN12.Cl [Example 2-132] | 277 °C (dec.)
39 | COc1cccc2c1N=C(NC(=O)c1cccnc1Cl)N1CCN=C21.Cl [Example 2-119] | 266 °C (dec.)
40 | COc1cccc2c1N=C(/C=C(\O)c1cccnc1)N1CCN=C21.Cl [Example 1-69] | 285 °C
41 | Cl.O/C(=C\C1=Nc2cc(N3CCOCC3)ccc2C2=NCCN12)c1ccc2[nH]cnc2c1 [Example 1-101] | 286 °C (dec.)
42 | COc1cccc2c1N=C(NC(=O)c1ccc3[nH]cnc3c1)N1CCN=C21.Cl [Example 2-125] | 238 °C
43 | Cl.O/C(=C\C1=Nc2ccccc2C2=NCCN12)c1ccccn1 [Example 1-174] | 235 to 240 °C
44 | COc1cc2c(c(OC)c1C)N=C(NC(=O)c1ccc3[nH]cnc3c1)N1CCN=C21.Cl [Example 2-82] | 280 °C (dec.)
45 | Cl.O=C(NC1=Nc2ccccc2C2=NCCN12)c1c[nH]cn1 [Example 2-194] | 309 to 310 °C
46 | COc1c(C)cc(C(=O)NC2=Nc3ccccc3C3=NCCN23)cc1C.Cl [Example 2-221] | 288 °C (dec.)
47 | Cl.O=C(NC1=Nc2ccccc2C2=NCCN12)c1ccc([N+](=O)[O-])s1 [Example 2-304] | 300 °C (dec.)
48 | Cc1ccc(C(=O)NC2=Nc3ccccc3C3=NCCN23)cn1.Cl [Example 2-148] | 310 °C (dec.)
49 | Cl.O/C(=C\C1=Nc2c(Br)cccc2C2=NCCN12)c1cccnc1 [Example 1-74] | 246 °C
50 | CC(=O)Nc1ccc(C(=O)NC2=Nc3cc(N4CCOCC4)ccc3C3=NCCN23)cc1 [Example 2-15] | 227 °C

Row | Structure (SMILES) | melting point
51 | O/C(=C\C1=Nc2cc(Cl)ccc2C2=NCCN12)c1cccnc1 [Example 1-117] | 280 °C (dec.)
52 | Cl.O=C(NC1=Nc2ccccc2C2=NCCN12)c1sccc1Cl [Example 2-181] | 298 °C (dec.)
53 | COc1cc2c(cc1OC)C1=NCCN1C(/C=C(\O)c1ccc3[nH]cnc3c1)=N2 [Example 1-56] | 212 to 215 °C
54 | Cl.O=C(NC1=Nc2cc(OCCO)ccc2C2=NCCN12)c1cccnc1 [Example 2-198] | 249 °C (dec.)
55 | Cl.O=C(NC1=Nc2c(F)cccc2C2=NCCN12)c1ccc2[nH]cnc2c1 [Example 2-102] | > 300 °C
56 | COc1cccc2c1N=C(NC(=O)c1cc3cccnc3nc1C(F)(F)F)N1CCN=C21.Cl [Example 2-129] | 225 °C (dec.)
57 | Cc1ccc2c(c1)N=C(NC(=O)c1cccnc1)N1CCN=C21.Cl [Example 2-28] | 315 °C
58 | COc1c(O)ccc2c1N=C(/C=C(\O)c1cccnc1)N1CCN=C21 (as salt: hydrochloride) [Example 1-4, 5-(2-Hydroxy-2-pyridin-3-ylvinyl)-7-methoxy-2,3-dihydroimidazo[1,2-c]quinazolin-8-ol hydrochloride] | 245 °C
59 | COc1ccc2c(c1)N=C(NC(=O)c1cccnc1)N1CCN=C21.Cl [Example 2-21] | 292 °C (dec.)
60 | C=Cc1ccc2c(c1)C1=NCCN1C(NC(=O)c1cccnc1)=N2.Cl [Example 2-96] | 275 to 277 °C
61 | COc1ccc2c(c1)C1=NCCN1C(/C=C(\O)c1cccnc1)=N2.Cl [Example 1-127] | > 300 °C
62 | CC(=O)Nc1ccc(C(=O)NC2=Nc3ccccc3C3=NCCN23)cn1.Cl [Example 2-152] | 312 °C (dec.)
63 | O=C(NC1=Nc2ccccc2C2=NCCN12)c1ccccn1.O=C(O)C(F)(F)F [Example 2-277] | 206 °C (dec.)
64 | CC(=O)Nc1ccc(/C(O)=C/C2=Nc3cc(N4CCOCC4)ccc3C3=NCCN23)cn1.Cl [Example 1-97] | 246 °C
65 | COc1cc2c(c(OC)c1C)N=C(/C=C(\O)c1cccnc1)N1CCN=C21.Cl [Example 1-63] | 285 °C
66 | Cl.O=C(NC1=Nc2ccccc2C2=NCCN12)c1ccsc1 [Example 2-184] | 297 °C (dec.)
67 | Cl.O/C(=C\C1=Nc2ccccc2C2=NCCN12)c1cccnc1 [Example 1-135] | 260 °C (dec.)
68 | Cl.O=C(NC1=Nc2ccccc2C2=NCCN12)c1csc([N+](=O)[O-])c1 [Example 2-306] | 296 °C (dec.)
69 | Cl.Cn1cccc1C(=O)NC1=Nc2ccccc2C2=NCCN12 [Example 2-297] | 264 °C (dec.)
70 | COc1cc2c(cc1OC)C1=NCCN1C(/C=C(\O)c1cccs1)=N2.Cl [Example 1-59] | 266 to 268 °C
71 | COc1ccc2c(c1OC)N=C(/C=C(\O)c1cccnc1)N1CCN=C21.Cl [Example 1-11] | 249 to 250 °C
72 | Cl.O/C(=C\C1=Nc2cc(CN3CCOCC3)ccc2C2=NCCN12)c1cccnc1 [Example 1-112] | 242 °C
73 | Cc1ccc2c(c1)N=C(NC(=O)c1cccs1)N1CCN=C21.Cl [Example 2-32] | 276 °C
